Experimental data published in ChEMBL document CHEMBL1201862, “PubChem BioAssay data set” (2004).
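In this assay, cells in 96-well plates receive the compound at five concentrations for 48 hours. Endpoints are linearly interpolated between the surrounding concentrations. GI50 = concentration required for 50% inhibition of growth.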 Active and inactive are the calls of the source. No stated cut-off is given here; in the data, active = GI50 up to about 1.1 µM and inactive = higher.

How the values were obtained:
Assay in all cases: NCI anticancer screen, dose series, 48 h
SF-295 = tested on: SF-295
NCI/ADR-RES = tested on: NCI/ADR-RES
PC-3 = tested on: PC-3
EKVX = tested on: EKVX
NCI-H522 = tested on: NCI-H522
HT-29 = tested on: HT-29
SR = tested on: SR
SF-539 = tested on: SF-539
SK-MEL-2 = tested on: SK-MEL-2
HCT-15 = tested on: HCT-15
T47D = tested on: T47D
A549 = tested on: A549
SN12C = tested on: SN12C
SW-620 = tested on: SW-620
NCI-H460 = tested on: NCI-H460
UACC-62 = tested on: UACC-62
DU-145 = tested on: DU-145
M14 = tested on: M14
786-0 = tested on: 786-0
HOP-62 = tested on: HOP-62

SMILES	GI50 (SF-295)	GI50 (NCI/ADR-RES)	GI50 (PC-3)	GI50 (EKVX)	GI50 (NCI-H522)	GI50 (HT-29)	GI50 (SR)	GI50 (SF-539)	GI50 (SK-MEL-2)	GI50 (HCT-15)	GI50 (T47D)	GI50 (A549)	GI50 (SN12C)	GI50 (SW-620)	GI50 (NCI-H460)	GI50 (UACC-62)	GI50 (DU-145)	GI50 (M14)	GI50 (786-0)	GI50 (HOP-62)
C#C[C@]1(O)[C@@H](CO)O[C@@H](n2ccc(N)nc2=O)[C@@H]1O	< 0.0334 µM (active)	< 0.0317 µM (active)	0.0352 µM (active)	0.173 µM (active)	< 0.01 µM (active)	< 0.0149 µM (active)	< 0.01 µM (active)	0.111 µM (active)	0.0435 µM (active)	< 0.01 µM	< 0.015 µM (active)	< 0.01 µM (active)	< 0.01 µM (active)	< 0.01 µM (active)	< 0.01 µM (active)	0.0352 µM (active)	< 0.01 µM (active)	0.107 µM (active)	< 0.0325 µM (active)	
COC(=O)[C@H]1[C@H](OC(=O)[C@@H](OC)c2ccccc2)ON2CC[C@@H](OC(=O)c3ccccc3)[C@H]12	39.4 µM (inactive)	> 100 µM (inactive)	> 100 µM (inactive)	> 100 µM (inactive)	2.65 µM (inactive)	51.3 µM (inactive)	> 100 µM (inactive)		48.1 µM (inactive)	> 100 µM	91.2 µM (inactive)	> 100 µM (inactive)	78 µM (inactive)		> 100 µM (inactive)	10.7 µM (inactive)	> 100 µM (inactive)	> 100 µM (inactive)	43 µM (inactive)	35.1 µM (inactive)
COC(=O)c1cc(OCc2cc(OCc3ccc(Br)cc3)cc(OCc3ccc(Br)cc3)c2)cc(OCc2cc(OCc3ccc(Br)cc3)cc(OCc3ccc(Br)cc3)c2)c1	> 100 µM (inactive)	> 100 µM (inactive)	> 100 µM (inactive)	> 100 µM (inactive)	> 100 µM (inactive)			14.1 µM (inactive)	> 100 µM (inactive)	> 100 µM	> 100 µM (inactive)	> 100 µM (inactive)	> 100 µM (inactive)		> 100 µM (inactive)	> 100 µM (inactive)	> 100 µM (inactive)	> 100 µM (inactive)	> 100 µM (inactive)	> 100 µM (inactive)
O=c1cc(N2CCN(c3cc(=O)n4ccccc4n3)CC2)oc2ccccc12	> 76.7 µM (inactive)	> 66.8 µM (inactive)	> 100 µM (inactive)	31.2 µM (inactive)	29.8 µM (inactive)	38 µM (inactive)		> 100 µM (inactive)	> 100 µM (inactive)	30.6 µM	> 73.5 µM (inactive)	32.3 µM (inactive)	> 92.7 µM (inactive)	29.7 µM (inactive)	26.6 µM (inactive)	> 100 µM (inactive)	> 100 µM (inactive)	34.7 µM (inactive)	> 76 µM (inactive)	
CCOC(=O)C(NC(=O)c1cccc(Cl)c1)(Nc1ccc(S(=O)(=O)Nc2cc(C)nc(C)n2)cc1)C(F)(F)F (centres undefined)	> 100 µM (inactive)	> 100 µM (inactive)	> 100 µM (inactive)	> 100 µM (inactive)	> 100 µM (inactive)	> 100 µM (inactive)	68.7 µM (inactive)	> 100 µM (inactive)	> 100 µM (inactive)	> 100 µM	> 100 µM (inactive)	> 100 µM (inactive)	> 100 µM (inactive)	> 100 µM (inactive)	> 100 µM (inactive)		> 100 µM (inactive)	> 100 µM (inactive)	> 100 µM (inactive)	> 100 µM (inactive)
CC(=O)O[C@@H]1CC2[C@@H](CCC3Cc4nc5c(nc4C[C@@]32C)CC2CC[C@@H]3C(CC[C@@]4(C)C3CC[C@@H]4C(C)CCCC(C)C)[C@@]2(C)C5)C2C[C@@H]3OC4(CCC(C)CO4)C(C)[C@@H]3[C@]21C (some centres undefined)	53.8 µM (inactive)	30.3 µM (inactive)	> 100 µM (inactive)	> 100 µM (inactive)	> 100 µM (inactive)	> 100 µM (inactive)	> 100 µM (inactive)	> 100 µM (inactive)		> 100 µM	> 100 µM (inactive)	> 100 µM (inactive)	> 100 µM (inactive)	> 100 µM (inactive)	> 100 µM (inactive)	2.01 µM (inactive)	> 100 µM (inactive)	> 100 µM (inactive)	53.7 µM (inactive)	22.8 µM (inactive)
COC1(OC)CCN(Cc2ccccc2)C1=O	23.4 µM (inactive)	25.3 µM (inactive)	13.2 µM (inactive)	16 µM (inactive)	> 100 µM (inactive)	5.92 µM (inactive)		14 µM (inactive)	15.4 µM (inactive)	13.4 µM	4.45 µM (inactive)	17.7 µM (inactive)	10.4 µM (inactive)	2.86 µM (inactive)	18.7 µM (inactive)	10.9 µM (inactive)	15.2 µM (inactive)	10.4 µM (inactive)	5.08 µM (inactive)	20.6 µM (inactive)
